Measurements reported in PubChem BioAssay (NCI).
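Five compound concentrations were applied to cells in 96-well plates for 48 hours; endpoints were derived by simple linear interpolation of the resulting dose-response curve. GI50: concentration for 50% inhibition of growth. TGI: concentration producing complete growth inhibition.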

What was measured:
Experiment in all cases: NCI-60 cell line screen, 48 h
[1] = test system: A549 NSCLC
[2] = test system: CAKI-1 renal
[3] = test system: IGROV1 ovarian
[4] = test system: NCI-H460 lung
[5] = test system: NCI-H522 lung
[6] = test system: OVCAR-3 ovarian
[7] = test system: OVCAR-4 ovarian
[8] = test system: SK-MEL-5 melanoma
[9] = test system: U251 CNS
[10] = test system: UACC-257 melanoma
[11] = test system: MDA-MB-231 breast

SMILES	TGI [1] [µM]	TGI [2] [µM]	TGI [3] [µM]	TGI [4] [µM]	TGI [5] [µM]	TGI [6] [µM]	TGI [7] [µM]	TGI [8] [µM]	TGI [9] [µM]	TGI [10] [µM]	TGI [11] [µM]	GI50 [3] [µM]	GI50 [11] [µM]	GI50 [6] [µM]	GI50 [7] [µM]	GI50 [8] [µM]	GI50 [2] [µM]	GI50 [4] [µM]	GI50 [9] [µM]	GI50 [10] [µM]
C[N+]1(C)C/C(=C\c2ccc(O)cc2)C(=O)/C(=C/c2ccc(O)cc2)C1	> 100	> 100	> 100	> 100	> 100	> 100	> 100	> 100	> 100	> 100	–	–	–	–	–	–	–	–	–	–
NC(=S)N/N=C1\CC(c2ccccc2)Nc2ccccc21 (centres undefined)	–	> 100	> 100	> 100	99.2	> 100	–	50.9	> 100	–	–	–	–	–	–	–	–	–	–	–
COc1ccc(OC)c([N+](=O)[O-])c1-c1nc2sc(C)c(C)n2c1/C=N/N=C(N)N	> 100	> 100	> 100	> 100	> 100	> 100	> 100	> 100	> 100	> 100	> 100	–	–	–	–	–	–	–	–	–
Nc1ccc(S(=O)(=O)NCCS(=O)(=O)O)cc1	> 100	> 100	> 100	> 100	> 100	> 100	> 100	> 100	> 100	> 100	> 100	–	–	–	–	–	–	–	–	–
CC(=O)C(N=NC1CCC(S(=O)(=O)NB2N=CS2)CC1)C(=O)Nc1ccccc1C (centres undefined)	28.6	46.9	35.2	33.9	29.6	27	74.1	26.9	26.6	45.1	–	–	–	–	–	–	–	–	–	–
CC(=O)c1c(C)cc2cccc(OC3OC(CO)C(O)C(O)C3O)c2c1O (centres undefined) (tested in a mixture with another compound)	> 100	> 100	> 100	> 100	> 100	> 100	> 100	> 100	> 100	> 100	> 100	–	–	–	–	–	–	–	–	–
COc1cc(O)c2c(=O)c(OC)c(-c3ccc(OC)c(OC)c3)oc2c1.[Zn+2]	> 100	> 100	> 100	> 100	24.1	35.7	32.2	> 100	–	–	65.4	29.8	3.83	14.1	4.19	17.6	–	–	–	–
C=C(C[C@@H](O)[C@H](C)NC(=O)OCc1ccccc1)C(=O)OC(C)(C)C	> 100	> 100	> 100	> 100	> 100	> 100	> 100	> 100	> 100	> 100	> 100	–	–	–	–	–	–	–	–	–
CCCCCCCCc1ccc(CCC(N)(CO)CO)cc1	–	6.56	3.9	3.53	–	3.48	–	2.98	3.32	5.01	1.98	1.89	0.521	1.94	–	1.62	2.64	1.76	1.8	2.23
C[N+]1(c2ccccc2)C=C(c2ccccc2)SC1=S (centres undefined)	> 100	> 100	> 100	> 100	> 100	> 100	–	> 100	> 100	> 100	> 100	–	–	–	–	–	–	–	–	–
O=S(=O)([O-])[O-].[Fe+2].[OH2+]c1c(Cl)cc(Cl)cc1/C=N/Nc1ccccn1	4.14	–	3.13	4.42	1.92	0.578	–	15.1	2.74	2.63	–	–	–	–	–	–	–	–	–	–
CC(=O)Oc1cc(/C=C/c2ccc(O)cc2)cc(OC(C)=O)c1	> 100	> 100	> 100	> 100	> 100	> 100	> 100	> 100	> 100	> 100	> 100	–	–	–	–	–	–	–	–	–
Cc1ncc(COP(=O)(O)O)c(C)c1O	> 100	> 100	> 100	> 100	> 100	> 100	> 100	> 100	> 100	> 100	> 100	–	–	–	–	–	–	–	–	–
Cc1cccc(/C=C2/C(=O)Nc3ccccc32)n1	> 85	37.8	> 100	> 81.2	34.7	39.3	56.7	26.3	> 65.9	30.1	34.3	24.4	11.6	–	–	–	–	–	–	–
